Measurements as given in patent US11419881B2, “Treatment of migraine” (priority 2019, dated 2022).
Like-named read-outs stand apart in the source and are kept apart here.

Legend:
[1] = biological target: T1, glucocorticoid receptors (Homo sapiens, UniProt P04150); test: In vitro agonist/antagonist activity on glucocorticoid receptors; format: biochemical
T1 sequence (P04150 1-777): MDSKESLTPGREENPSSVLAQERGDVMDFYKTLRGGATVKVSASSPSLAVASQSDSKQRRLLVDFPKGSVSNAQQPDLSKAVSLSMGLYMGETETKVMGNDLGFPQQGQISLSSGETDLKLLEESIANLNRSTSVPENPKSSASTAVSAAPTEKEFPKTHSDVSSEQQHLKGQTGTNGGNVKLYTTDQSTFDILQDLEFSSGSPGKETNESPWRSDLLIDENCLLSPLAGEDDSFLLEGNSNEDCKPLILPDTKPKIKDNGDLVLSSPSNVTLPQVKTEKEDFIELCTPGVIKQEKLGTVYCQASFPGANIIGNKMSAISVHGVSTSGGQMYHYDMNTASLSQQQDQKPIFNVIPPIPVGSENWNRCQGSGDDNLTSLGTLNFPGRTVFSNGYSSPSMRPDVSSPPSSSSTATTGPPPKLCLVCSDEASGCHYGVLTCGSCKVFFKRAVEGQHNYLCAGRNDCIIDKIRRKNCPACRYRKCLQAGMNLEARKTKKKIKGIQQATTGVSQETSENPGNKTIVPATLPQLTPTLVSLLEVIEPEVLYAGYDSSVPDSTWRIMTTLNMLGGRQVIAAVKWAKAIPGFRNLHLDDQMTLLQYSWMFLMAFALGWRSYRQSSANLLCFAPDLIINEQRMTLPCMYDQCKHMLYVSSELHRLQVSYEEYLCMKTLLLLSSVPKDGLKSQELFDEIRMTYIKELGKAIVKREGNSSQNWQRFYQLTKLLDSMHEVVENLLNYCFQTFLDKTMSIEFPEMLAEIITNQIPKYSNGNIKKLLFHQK

[2] = biological target: T2, androgen receptors (Homo sapiens, UniProt P10275); test: In vitro agonist/antagonist activity on androgen receptors; format: biochemical
T2 sequence (P10275 1-920): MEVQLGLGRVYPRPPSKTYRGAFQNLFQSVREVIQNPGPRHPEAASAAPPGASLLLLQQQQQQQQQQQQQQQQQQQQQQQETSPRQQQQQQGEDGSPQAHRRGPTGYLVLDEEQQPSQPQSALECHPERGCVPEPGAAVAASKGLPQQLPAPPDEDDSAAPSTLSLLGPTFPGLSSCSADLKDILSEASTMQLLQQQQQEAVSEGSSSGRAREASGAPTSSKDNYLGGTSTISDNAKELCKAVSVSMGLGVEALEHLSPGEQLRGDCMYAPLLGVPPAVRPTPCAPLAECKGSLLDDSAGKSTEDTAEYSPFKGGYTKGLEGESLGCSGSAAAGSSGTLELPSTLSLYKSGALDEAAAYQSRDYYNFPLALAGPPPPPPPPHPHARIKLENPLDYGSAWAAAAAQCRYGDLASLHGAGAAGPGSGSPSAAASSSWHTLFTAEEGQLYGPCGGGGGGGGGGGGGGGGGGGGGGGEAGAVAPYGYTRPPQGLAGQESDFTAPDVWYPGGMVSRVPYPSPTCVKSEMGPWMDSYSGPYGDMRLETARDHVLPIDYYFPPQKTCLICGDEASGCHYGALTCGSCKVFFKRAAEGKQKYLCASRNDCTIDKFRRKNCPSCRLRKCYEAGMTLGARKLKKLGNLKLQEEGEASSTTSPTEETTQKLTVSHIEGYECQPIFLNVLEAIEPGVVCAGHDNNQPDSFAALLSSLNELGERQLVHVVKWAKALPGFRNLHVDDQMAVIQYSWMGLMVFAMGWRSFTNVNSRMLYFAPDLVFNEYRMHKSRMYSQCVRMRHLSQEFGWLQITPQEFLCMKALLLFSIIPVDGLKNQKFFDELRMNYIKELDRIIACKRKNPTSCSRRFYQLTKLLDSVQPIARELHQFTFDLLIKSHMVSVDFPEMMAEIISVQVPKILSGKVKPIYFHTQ

[3] = biological target: T3, progestin receptors (Homo sapiens, UniProt P06401); test: In vitro agonist/antagonist activity on progestin receptors; format: biochemical
T3 sequence (P06401 1-933): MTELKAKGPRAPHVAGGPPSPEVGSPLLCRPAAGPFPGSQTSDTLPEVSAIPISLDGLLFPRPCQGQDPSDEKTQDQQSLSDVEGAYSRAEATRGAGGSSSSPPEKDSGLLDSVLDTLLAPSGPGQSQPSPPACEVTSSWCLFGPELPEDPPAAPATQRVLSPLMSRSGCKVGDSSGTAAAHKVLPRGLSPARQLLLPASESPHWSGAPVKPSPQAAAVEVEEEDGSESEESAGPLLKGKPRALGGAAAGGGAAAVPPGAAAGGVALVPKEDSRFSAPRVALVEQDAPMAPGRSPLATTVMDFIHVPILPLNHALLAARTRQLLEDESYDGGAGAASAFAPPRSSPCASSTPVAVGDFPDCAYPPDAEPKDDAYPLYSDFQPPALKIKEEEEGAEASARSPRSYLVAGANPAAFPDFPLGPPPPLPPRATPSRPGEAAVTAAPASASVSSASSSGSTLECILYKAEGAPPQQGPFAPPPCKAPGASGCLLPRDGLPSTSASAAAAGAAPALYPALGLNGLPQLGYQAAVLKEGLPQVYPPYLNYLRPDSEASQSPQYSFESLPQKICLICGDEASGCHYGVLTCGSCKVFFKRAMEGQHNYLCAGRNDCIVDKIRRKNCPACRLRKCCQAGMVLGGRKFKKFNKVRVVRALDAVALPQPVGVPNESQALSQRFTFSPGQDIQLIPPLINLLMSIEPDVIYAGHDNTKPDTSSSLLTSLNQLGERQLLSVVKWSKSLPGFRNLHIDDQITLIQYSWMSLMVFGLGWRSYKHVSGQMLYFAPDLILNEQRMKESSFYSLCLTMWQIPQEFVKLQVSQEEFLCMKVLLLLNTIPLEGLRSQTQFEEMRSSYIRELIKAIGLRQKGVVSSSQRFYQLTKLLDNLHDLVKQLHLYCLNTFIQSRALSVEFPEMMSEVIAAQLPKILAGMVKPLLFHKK

[4] = system: estrogen receptors; test: In vitro agonist/antagonist activity on estrogen receptors; format: biochemical
[5] = system: nasal septal chemosensory mucosa; test: Electrophysiology: depolarization of the nasal septal chemosensory mucosa; set-up: species or system human
[6] = Exploratory single-blind study in chronic migraine subjects (HAM-A, HAM-D, VRS, resting state fMRI)
[7] = Nasal spray 0.5 μg versus vehicle in 14 women of reproductive age, physiologic parameters; format: in vivo, human; settings: compared to vehicle
[8] = In vivo bone marrow micronucleus test
[9] = system: isolated human nasal chemosensory neurons; test: Electrophysiology: inward currents in isolated human nasal chemosensory neurons; format: cell-based
[10] = Ames reverse mutation assay
[11] = format: in vivo, human
[12] = system: nasal chemosensory mucosa; test: Electrogram from the nasal chemosensory mucosa of human volunteers; format: in vivo
Procedure: (§1) The half effective dose of this effect was 0.087 μg.

[13] = Hot flashes in menopausal women after nasal administration; format: in vivo, human
Text: 16α,17α-Epoxy-10β-hydroxyestr-4-en-3-one decreased parasympathetic system tone resulting in increased sympathetic activity and stimulation of β2 adrenergic receptors in the bronchiole smooth muscle that induced bronchodilation; (b) increased skin conductance amplitude is the result of increased skin secretions, which are produced by preponderance of the sympathetic nervous system tone (or decreased parasympathetic tone); (c) decreased body temperature is explained by increased activity of the posterior (adrenergic) hypothalamus and decreased parasympathetic tone (anterior hypothalamus).

[14] = Reproductive toxicity studies in pregnant rabbits; format: in vivo; settings: intravenous up to 2.5 mg/kg/day during organogenesis
[15] = Preclinical pharmacokinetic studies, intravenous doses; format: in vivo, rats, rabbits, or dogs; settings: single repeated intravenous doses up to 2.5 mg/kg
[16] = in vivo
[17] = Acute and multidose (28 day) toxicity studies, nasal and intravenous; format: in vivo, rats, mice, rabbits and dogs
[18] = Reflex (autonomic) activity after nasal administration in human volunteers; format: in vivo; settings: nasal 1.6 μg
Procedure: as §1

[19] = Preclinical pharmacokinetic studies, nasal doses; format: in vivo; settings: repeated or single escalating nasal doses up to 100 μg/rat, 400 μg/rabbit, 600 μg/dog
[20] = Nasal spray 1.6 μg in women of reproductive age, core body temperature and sympathoadrenergic tone; format: in vivo, human
Procedure: It also changed the tone of the sympathoadrenergic system (as assessed by measuring physiologic sinus arrhythmia) within 5 minutes of administration, and the effect persisted for 15 to 20 minutes.

[21] = migraine subjects, 6.4 μg nasal, relative to placebo
[22] = after single dose nasal administration
[23] = women with PMDD, nasal, versus placebo

C[C@]12CC[C@H]3[C@@H](CCC4=CC(=O)CC[C@@]43O)[C@@H]1C[C@H]1O[C@H]12 [16α,17α-epoxy-10β-hydroxyestr-4-en-3-one]
agonist or antagonist activity on glucocorticoid receptors [1]: no agonist or antagonist activity | agonist or antagonist activity on androgen receptors [2]: no agonist or antagonist activity | agonist or antagonist activity on progestin receptors [3]: no agonist or antagonist activity | agonist or antagonist activity on estrogen receptors [4]: no agonist or antagonist activity | depolarization of the nasal septal chemosensory mucosa [5]: electrotonic depolarization | functional connectivity of the amygdala with the anterior occipital lobe and right middle occipital lobe (fMRI) [6, 21]: increased functional connectivity | functional connectivity of the hypothalamus with the anterior orbital gyrus, right medial orbital gyrus and pons (fMRI) [6, 21]: decreased functional connectivity | functional connectivity of the right thalamus with left orbitofrontal cortex, superior parietal lobe, left insular cortex and left primary motor cortex (fMRI) [6, 21]: decreased functional connectivity | functional connectivity of the right thalamus with the left somatosensory cortex (fMRI) [6, 21]: increased functional connectivity | tolerability ([6]; single nasal 6.4 μg, all three subjects): tolerated | mean decrease in headache pain intensity score (VRS, 6-point) relative to placebo ([6]; two migraine subjects, single nasal 6.4 μg, 15 minutes, p<0.01): 2.5 | anxiety scores (HAM-A) ([6]; two migraine subjects, single nasal 6.4 μg, p<0.01): significantly improved | depression scores (HAM-D) ([6]; two migraine subjects, single nasal 6.4 μg, not statistically significant): improvement trend | cardiac frequency [7]: not statistically significant increase | core body temperature [7]: statistically significant decreases | galvanic skin reflex [7]: statistically significant decreases | respiratory frequency [7]: statistically significant decreases | skeletal muscle tone [7]: statistically significant decreases | mutagenic or clastogenic potential [8]: no evidence of mutagenic or clastogenic potential | inward currents in isolated human nasal chemosensory neurons ([9]; isolated neurons): induced inward currents | concentration giving maximal response (amplitude) ([9]; response amplitude increased with concentration): 10^−7 to 10^−6 M | mutagenic or clastogenic potential [10]: no evidence of mutagenic or clastogenic potential | persistence of improvements [11, 22]: approximately 5 hours | time to appearance of improvements [11, 22]: ≤ 30 min | serious adverse events ([11]; in vivo): No serious adverse events were reported | side effects ([11]; in vivo): minimal and similar to administration of placebo | cortical behavioral symptoms (headache, tension) [11, 23]: significant improvements | hypothalamic behavioral symptoms (fatigue, anger, craving for foods) [11, 23]: significant improvements | limbic system behavioral symptoms (mood swings, depression, lack of interest) [11, 23]: significant improvements | half effective dose of electrogram activation ([12]; human volunteers of both sexes): 0.087 µg | activation of the electrogram recorded from the nasal chemosensory mucosa ([12]; microgram quantities, volunteers of both sexes): concentration dependent activation | number, severity and bother of hot flashes [13]: decreased number, severity and bother of hot flashes | effects on maternal or litter parameters [14]: no adverse effects on maternal or litter parameters | plasma concentrations, dose dependence [15]: dose-proportional | plasma concentrations, time course [15]: decreased rapidly | systemic exposure [16]: lack of systemic exposure | deaths, adverse clinical signs, effects on laboratory or pathology parameters ([17]; same nasal and intravenous doses, all species): no deaths or adverse clinical signs or effects on laboratory or pathology parameters observed | tolerability ([17]; single nasal up to 100 μg/rat, 400 μg/rabbit, 600 μg/dog, repeated nasal up to 50 μg/rat/day, 300 μg/dog/day, iv single and repeated up to 2.5 mg/kg, 28 day): well tolerated in all species tested | body core temperature (external ear canal) [18]: decreased body core temperature | cardiac rate [18]: no significant change | depth of the inspiratory cycle of respiration [18]: significantly increased amplitude | latency of modulation of reflex activity after the electrogram [18]: 5 to 10 s | skeletal muscle tone (electromyogram, chin muscles) [18]: decreased skeletal muscle tone | skin conductance (electrodermal activity) ([18]; palmar surface of fourth and fifth finger): increased amplitude of the skin conductance | respiration rate ([18]; within physiologic range): decreased respiration rate | systemic exposure [19]: very low systemic exposure | decrease in core body temperature [20]: 1±0.23 °C | latency of decrease in core body temperature [20]: 0.5 to 4 min | persistence of change of sympathoadrenergic tone [20]: 15 to 20 min | persistence of decrease in core body temperature [20]: 9 ± 2.5 min | time to change of sympathoadrenergic tone (physiologic sinus arrhythmia) [20]: ≤ 5 minutes
